Data published in patent US9409146B2, “Method for treating amyloid disease” (New York University, priority 2002, dated 2016).

What was measured:
Aβ plaques = assay: Histology and image analysis of Aβ plaques in brain (6E10 staining); format: in vivo, mouse
Procedure: (§1) Briefly, mice received their first immunization with K6Aβ1-30-NH2(E18E19) at 10.5-13 months of age (peptide: n=23; vehicle: n=24). The animals were bled prior to vaccination, 3 months following the first injection and at the time of sacrifice at 18 to 21 months. The mice were tested in the radial arm maze, subsequently perfused and their brains processed as described (Sigurdsson et al., Am. J. Pathol. 2001; 159:439-4471) (peptide: n=18; vehicle: n=18).
Mice were anesthetized with sodium pentobarbital (150 mg/kg, intraperitoneally), perfused transaortically with phosphate buffer and the brains processed as previously described (Sigurdsson et al., Neurobiol. Aging 1996; 17:893-901) The right hemisphere was immersion fixed in periodate-lysine-paraformaldehyde (PLP), whereas the left hemisphere was snap-frozen for measurements of Aβ3 levels using established ELISA methods (Mehta et al., Arch. Neurol. 2000; 57:100-105). Serial coronal sections (40 μm) were cut and every fifth section was stained with 6E10 which recognizes Aβ and stains both pre-amyloid and Aβ plaques (Kim et al., Neurosci Res Comm 1990; 7:113-122). […]
Immunohistochemistry of tissue sections was quantified with a Bioquant image analysis system, and unbiased sampling was used (West et al., Trends Neurosci. 1999; 22:51-61). […] Cortical area analyzed was dorsomedially from the cingulate cortex and extended ventrolaterally to the rhinal fissure within the right hemisphere. The area of the grid was 800×800 μm^2 and amyloid load was measured in 20 frames per mouse (each: 640×480 μm^2), chosen randomly. […] The number of plaques were also counted and the plaques were divided into three groups based on their size (small: 0.01-50 μm^2; medium: 50.01-1000 μm^2; large: >1000 μm^2).
(§2) The data for the amyloid burden within the brain were analyzed by a Student's t-test, one-tailed (GraphPad Prism). The radial arm maze data was analyzed by two-way ANOVA repeated measures. […] Correlation was determined by calculating the Pearson r correlation coefficient.

Tg2576 APP mouse model [1] = assay: Radial arm maze after immunization of Tg2576 mice; format: in vivo
Procedure: as §1
The vaccination was performed in the Tg2576 APP mouse model developed by Karen Hsiao and colleagues (Hsiao et al., Science 1996:274:99-1022). These mice develop Aβ plaques as early as at 11 to 13 months of age. The animals were maintained on a 12-hour light-dark cycle, and had access to food and water ad libitum. The animal care was in accordance with institutional guidelines.
K6Aβ1-30-NH2(E18E19) was supplied as trifluoroacetic acid salt. […]
Animals were kept in test room throughout the experiment, behind a cover to prevent view of the apparatus and room. […] Total number of errors and time to enter all eight arms were recorded. […]
as §2

Tg2576 APP mouse model [2] = assay: Antibody levels in plasma by ELISA after immunization; format: in vivo; conditions: for IgM response compared to IgG response: plasma at 1:500 dilution
Procedure: as §1
K6Aβ1-30-NH2(E18E19) was supplied as trifluoroacetic acid salt. The immunization procedure was performed as previously described by us (Sigurdsson et al., Am. J. Pathol. 2001; 159:439-4471) which is the same protocol as described by Schenk and colleagues (Schenk et al., Nature 1999; 400:173-1773) except that the peptide was not incubated overnight at 37° C. before injection. Briefly, the peptide was dissolved in phosphate-buffered saline (PBS) at a concentration of 2 mg/ml and then mixed 1:1 (v/v) with the adjuvant or PBS. Complete Freund's adjuvant was used for the first injection, incomplete Freund's adjuvant for the next three injections, and PBS from the fifth injection forward. The mice received a subcutaneous injection of 100 μl of the mixture (ie, 100 μg/100 μl) followed by a second injection 2 weeks later, and then monthly thereafter. Vaccination using the K6Aβ1-30-NH2(E18E19) peptide started when the mice were 10.5-13 months of age and the mice were sacrificed at 18-21 months of age.
Antibody levels were determined by 1:500 dilutions of plasma using an enzyme-linked immunosorbent assay (ELISA) as described previously (Jimenez-Huete et al., Alzheimers Reports 1998; 1:41-47) in which Aβ or its derivative is coated onto microtiter wells. The antibodies were detected by a goat anti-mouse IgG linked to a horseradish peroxidase (Amersham Pharmacia Biotech, Piscataway, N.J.) or a goat anti-mouse IgM peroxidase conjugate (Sigma, A8786), and tetramethyl benzidine (Pierce, Rockford, Ill.) was the substrate.

[3] = system: immobilized Aβ40 and Aβ42 peptides; assay: Solid-phase binding assay (ELISA) of apoE preparations to immobilized Aβ peptides; conditions: delipidated or lipidated (HDL/r-HDL) apoE3 and apoE4, 0-150 nM, 3 h
immobilized Aβ40 and Aβ42 peptides, sequence (P05067 672-711 limits assumed): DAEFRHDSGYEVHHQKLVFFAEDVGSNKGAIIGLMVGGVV
Procedure: The binding of apoE to Aβ species was studied by ELISA using immobilized freshly prepared (non-aggregated) or 72-h-aggregated Aβ40 and Aβ42 and apoE3 or apoE4 isoforms with different degrees of lipidation. Polystyrene microtitre plates (Immulon2; Dynex Technology, Chantilly, Va., U.S.A.) were coated for 2 h. at 37° C. with either fresh or aggregated Aβ40 and Aβ42 (40(0 ng in 100 μl of 0.1 M NaHCO3, pH 9.6, per well). Under these conditions, 10 ng of fresh Aβ40, 9.6 ng of fresh Aβ42, 10.2 ng of aggregated Aβ40 and 10.9 ng of aggregated Aβ42 (representing 2.5, 2.4, 2.6 and 2.7% of the peptide offered, respectively) were coated to the microtitre wells, as determined by a modification of the Quantigold assay (Diversified Biotech, Boston, Mass., U.S.A.) for protein quantification. After blocking with Superblock (Pierce), increasing concentrations of apoE (0-150 nM in TBS; 100 μl per well) were added to the Aβ-coated wells and incubated for 3 h. at 37° C. Bound apoE was detected with monoclonal anti-apoE antibody (3D12, 1:1000) followed by alkaline-phosphatase-conjugated goat F(ab′)2 anti-mouse IgG (1:3000; BioSource International, Camarillo, Calif., U.S.A.). The reaction was developed for 30 min. with p-nitrophenyl phosphate in diethanolamine buffer (Bio-Rad, Hercules, Calif., U.S.A.), and quantified at 405 nm on a Microplate Reader (Cambridge Technology, Watertown, Mass., U.S.A.). […]

“K6Aβ1-30(E18E19): first 30 amino acids of amyloid-β with glutamate substituted for valine and phenylalanine in positions 18 and 19” was tested, and the “effect on large plaques” value (Aβ plaques; large: >1000 μm^2) was “not significantly (N.S.) affected”, the “reduction of medium sized plaques” value (Aβ plaques; medium: 50.01-1000 μm^2, p=0.04) was 29% and the “reduction of small plaques” value (Aβ plaques; small: 0.01-50 μm^2, p=0.02) was 34%. For the same substance, the “errors in the radial arm maze compared to vehicle-treated controls” value (Tg2576 APP mouse model [1]; Tg2576 transgenic mice, two-way ANOVA repeated measures, p<0.05) was “significantly fewer errors”, the “radial arm maze performance compared to day 1” value (Tg2576 APP mouse model [1]; immunized mice, p<0.01-0.05) was “showed improvements on days 3, 5, and 7-9” and the “cross-reactivity of generated IgM antibodies” value (Tg2576 APP mouse model [2]; IgM antibodies after immunization) was “cross-reacted with Aβ1-40”. The “IgM response compared to IgG response” value (Tg2576 APP mouse model [2]) was “substantially more pronounced IgM response compared to IgG response” and the “IgM response compared to IgG response” value (Tg2576 APP mouse model [2]; listed as K6Aβ1-30-NH2(E18E19)) was “high IgM response and low IgG response”.
For “apoE: human apoE3 or apoE4 from Sf9, HEK-293 or RAW-264 cells, delipidated or in HDL/r-HDL particles”, the “binding of apoE to Aβ” value [3] was “high affinity”.
